# Source: publication PMC11206678, “Peptide-Alkoxyamine Drugs: An Innovative Approach to Fight Schistosomiasis: “Digging Their Graves with Their Forks”” (Pathogens, 2024)
# “Also recorded” adds a separate entry of the source. Structures can show the parent of a compound that is named as a salt.
# How the values were obtained:
# [1] = system: Schistosoma mansoni adult worms; assay: Viability of Schistosoma mansoni adult worms in vitro; type: cell-based, Schistosoma mansoni NMRI strain; conditions: 100 μg/mL, 37 °C; for Time to Kill 50% of Parasites / Time to Kill 100% of Parasites: adult worms in RPMI 1640/Tween 80/DMSO, observed up to 72 h, duplicate wells; for Activity/toxicity towards schistosomes (in words): adult worms
# Description: Experiments on the viability of Schistosoma mansoni adult worms. In vitro tests were performed on Schistosoma mansoni NMRI strains. This parasite is lab maintained on Biomphalaria glabrata (BRE strain) as intermediate mollusc host and Golden Hamster (Janvier Labs, Le Genest-Saint-Isle, France) as definitive vertebrate host. Methods, for molluscs’ and hamsters’ infection and for parasite recovery, were previously described. Adult worms were recovered by hepatic perfusion technique between 42 and 47 days post hamster exposition to parasite larvae. Worms were carefully collected and disposed in 12-well Falcon® plate containing 2 mL of RPMI 1640 (supplemented with L-glutamine and Hepes 25 mM). The plates containing a minimum of 15 worms by well were then placed in an incubator chamber at 37 °C and 5% CO2. The worms sex ratio was almost balanced in each well. The drug was first dissolved in DMSO (Sigma-Aldrich) to give a 100 mg/mL mother solution. Then the stock solution was complemented with Tween 80 and RPMI to obtain the following final ratio dilution: RPMI 1640/Tween 80/DMSO and 1000/0.95/3.8, v/v/v.
# All molecules were tested at a final concentration of 100 µg/mL and 10 µg/mL. A negative control consisted in adding the same RPMI 1640/Tween 80/DMSO solution, but without any drug and a positive control consisted in adding praziquantel. All molecules and control were performed in duplicates of well. The worm viability was checked after 1, 2, 3, 4, 5, 6, 7, 8, 24, 48, and 72 h after adding the molecule.
# [2] = Homolysis kinetics of alkoxyamines by EPR (growth of nitroxide); type: physicochemical; conditions: mixture of diastereoisomers; for Homolysis rate constant kd: 0.1 mM alkoxyamine, O2 as alkyl radical scavenger; for Activation energy Ea: by Equation (2) from kd and T, A = 2.4 10^14 s^−1
# Description: Preparation of alkoxyamines and reference samples. All reagents including anhydrous solvents used for the chemical synthesis were purchased from commercially available sources such as Merck, TCI, and Fluorochem, and were used without further purification. All air and/or water-sensitive reactions were carried out under an argon atmosphere with dry solvents using standard syringe-cannula/septa techniques. Routine monitoring of reactions was performed using Merck Silica gel 60 F254, aluminum-supported TLC plates; spots were visualized using UV light and ethanolic acidic para-anisaldehyde solution or ethanolic phosphomolybdic solution, followed by heating. Purifications by means of column chromatography were performed with Silica gel 60 (230–400 mesh). ^1H, ^13C, and ^19F NMR spectra were obtained in CDCl3, MeOD (with residual H2O), D2O, DMSO-d6, or C6D6 solutions on by using Bruker AC400 (400 MHz) and Bruker AC300 (300 MHz) spectrometers. High-resolution mass spectra (HRMS) have been performed using a SYNAPT G2 HDMS (Waters) mass spectrometer equipped with a pneumatically assisted atmospheric pressure ionization (API) source. The sample was ionized in positive electrospray mode under the following conditions: electrospray voltage: 2.8 kV; port voltage: 20 V; Nebulizing gas flow rate (nitrogen): 100 L/h or in negative electrospray mode under the following conditions: electrospray voltage: −2.27 kV; port voltage: −20 V; Nebulizing gas flow rate (nitrogen): 100 L/h. The mass spectra (MS) were obtained with a time-of-flight (TOF) analyzer. The exact mass measurements were carried out in triplicate with external calibration. Homolysis constants were measured by EPR on an EMX Bruker spectrometer from 10^−4 M samples in tertbutyl benzene or in a mixture of H2O-nPrOH (1:1; v:v).
# Kinetic experiments. Kinetics of A1–A7 (Scheme 2) for series L and D are performed by monitoring the growth of nitroxide by Electron Paramagnetic Resonance (X-band EMX Bruker machine) in tert-butylbenzene and a water/n-PrOH (for a good solubility of the alkoxyamine) as solvents and using O2 as alkyl radical scavenger to suppress the back reaction (kc in Scheme 2) as already reported. Homolysis rate constants kd are given by Equation (1) ([nitroxide]∞ = [alkoxyamine]0 = 0.1 mM, see Table S1) and the subsequent activation energies Ea given by Equation (2). (1) lnnitroxide∞−nitroxidet/nitroxide∞=−kd·t, (2) Ea=−RTlnkd/A.
# [3] = C–ON bond homolysis in t-BuPh, EPR, T (°C): A1L 128.0, A3L 125.0, A5L 130.0, A6L 125, A7L 126.5, A1D 122.5, A3D 119.8, A5D 130
# [4] = C–ON bond homolysis in water/n-PrOH v/v 1:1, EPR, T (°C): A1L 95.1, A3L 94.5, A4L 94.6, A5L 94.0, A6L 94.8, A7L 94.3, A1D 93.5, A3D 92.6, A4D 95.0, A5D 94.6
Molecule,Time to Kill 50% of Parasites [1] [h],Time to Kill 100% of Parasites [1] [h],Activity/toxicity towards schistosomes (in words) [1],"Homolysis rate constant kd [2, 3]","Homolysis rate constant kd [2, 4]",Activation energy Ea ([2]; in t-BuPh) [kcal/mol],Activation energy Ea ([2]; in water/n-PrOH v/v 1:1) [kcal/mol],Time to Kill 50% of Parasites ([1]; listed as praziquantel) [h]
"CC(ON1C(C)(C)CCCC1(C)C)c1ccc(NC(=O)[C@H](Cc2ccccc2)NC(=O)[C@@H](NC(=O)[C@@H](N)Cc2ccccc2)C(C)C)cc1 (stereo partly drawn) [A5L, (2S)-2-((S)-2-amino-3-phenylpropanamido)-3-methyl-N-((2S)-1-oxo-3-phenyl-1-((4-(1-((2,2,6,6-tetramethylpiperidin-1-yl)oxy)ethyl)phenyl)amino)propan-2-yl)butanamide]",2,7,most efficient molecules,18 10^−4 s^−1,1.3 10^−4 s^−1,31.57,30.66,–
(S)-1-(((S)-1-(((S)-1-carboxy-2-phenylethyl)amino)-3-methyl-1-oxobutan-2-yl)amino)-1-oxo-3-phenylpropan-2-aminium trifluoroacetate [P11L],–,–,no activity,–,–,–,–,–
4-(((S)-1-(((S)-1-(((S)-1-carboxy-2-phenylethyl)amino)-3-methyl-1-oxobutan-2-yl)amino)-1-oxo-3-phenylpropan-2-yl)amino)-4-oxobutanoic acid [P10L],6,24,some activity towards schistosomes,–,–,–,–,–
"CC(ON1C(C)(C)CCCC1(C)C)c1ccc(NC(=O)[C@H](Cc2ccccc2)NC(=O)[C@@H](NC(=O)[C@H](Cc2ccccc2)NC(=O)CCC(=O)OCc2ccccc2)C(C)C)cc1 (stereo partly drawn) [A6L, Benzyl 4-(((2S)-1-(((2S)-3-methyl-1-oxo-1-(((2S)-1-oxo-3-phenyl-1-((4-(1-((2,2,6,6-tetramethylpiperidin-1-yl)oxy)ethyl)phenyl)amino)propan-2-yl)amino)butan-2-yl)amino)-1-oxo-3-phenylpropan-2-yl)amino)-4-oxobutanoate]",24,48,less active; also recorded: lower activity,11.0 10^−4 s^−1,1.1 10^−4 s^−1,31.57,30.86,–
"O=C(O)C(F)(F)F [TFA, reference compound]",7,24,–,–,–,–,–,–
(S)-1-(((S)-1-(((S)-1-((4-ethylphenyl)amino)-1-oxo-3-phenylpropan-2-yl)amino)-3-methyl-1-oxobutan-2-yl)amino)-1-oxo-3-phenylpropan-2-aminium trifluoroacetate [P22L],–,–,no activity,–,–,–,–,–
L-phenylalanyl-L-valyl-L-phenylalanine [P18L],–,–,no activity,–,–,–,–,–
"CC(ON1C(C)(C)CCCC1(C)C)c1ccc(NC(=O)[C@@H](Cc2ccccc2)NC(=O)OC(C)(C)C)cc1 (mixture of isomers) [A1D, tert-butyl ((2R)-1-oxo-3-phenyl-1-((4-(1-((2,2,6,6-tetramethylpiperidin-1-yl)oxy)ethyl)phenyl)amino)propan-2-yl)carbamate]",–,–,–,9.6 10^−4 s^−1,1.0 10^−4 s^−1,31.6,30.83,–
"CC(ON1C(C)(C)CCCC1(C)C)c1ccc(NC(=O)[C@H](Cc2ccccc2)NC(=O)OC(C)(C)C)cc1 (mixture of isomers) [A1L, tert-butyl ((2S)-1-oxo-3-phenyl-1-((4-(1-((2,2,6,6-tetramethylpiperidin-1-yl)oxy)ethyl)phenyl)amino)propan-2-yl)carbamate]",–,–,–,11.0 10^−4 s^−1,1.5 10^−4 s^−1,31.81,30.69,–
"O=C(C1CCCCC1)N1CC(=O)N2CCc3ccccc3C2C1 (stereo not drawn) [PZQ, praziquantel, reference compound]",1,1,–,–,–,–,–,< 1
Benzyl 4-(((S)-1-(((S)-1-(((S)-1-((4-ethylphenyl)amino)-1-oxo-3-phenylpropan-2-yl)amino)-3-methyl-1-oxobutan-2-yl)amino)-1-oxo-3-phenylpropan-2-yl)amino)-4-oxobutanoate [P23L],–,–,no activity,–,–,–,–,–
(S)-2-((S)-2-amino-3-phenylpropanamido)-N-((S)-1-((4-ethylphenyl)amino)-1-oxo-3-phenylpropan-2-yl)-3-methylbutanamide [P25L],–,–,no activity,–,–,–,–,–
"CC(ON1C(C)(C)CCCC1(C)C)c1ccc(NC(=O)[C@H](Cc2ccccc2)NC(=O)[C@@H](NC(=O)[C@H](Cc2ccccc2)NC(=O)OC(C)(C)C)C(C)C)cc1 (stereo partly drawn) [A3L, tert-butyl ((2S)-1-(((2S)-3-methyl-1-oxo-1-(((2S)-1-oxo-3-phenyl-1-((4-(1-((2,2,6,6-tetramethylpiperidin-1-yl)oxy)ethyl)phenyl)amino)propan-2-yl)amino)butan-2-yl)amino)-1-oxo-3-phenylpropan-2-yl)carbamate]",–,–,inactive; also recorded: non-activity,8.4 10^−4 s^−1,1.8 10^−4 s^−1,31.79,30.78,–
"CC(ON1C(C)(C)CCCC1(C)C)c1ccc(NC(=O)[C@H](Cc2ccccc2)NC(=O)[C@@H](NC(=O)[C@@H](N)Cc2ccccc2)C(C)C)cc1.O=C(O)C(F)(F)F (stereo partly drawn) [A4L, (2S)-1-(((2S)-3-methyl-1-oxo-1-(((2S)-1-oxo-3-phenyl-1-((4-(1-((2,2,6,6-tetramethylpiperidin-1-yl)oxy)ethyl)phenyl)amino)propan-2-yl)amino)butan-2-yl)amino)-1-oxo-3-phenylpropan-2-aminium trifluoroacetate]",2,24,most efficient molecules,–,1.0 10^−4 s^−1,–,30.9,–
"CC(ON1C(C)(C)CCCC1(C)C)c1ccc(NC(=O)[C@H](Cc2ccccc2)NC(=O)[C@@H](NC(=O)[C@H](Cc2ccccc2)NC(=O)CCC(=O)O)C(C)C)cc1 (stereo partly drawn) [A7L, 4-(((2S)-1-(((2S)-3-methyl-1-oxo-1-(((2S)-1-oxo-3-phenyl-1-((4-(1-((2,2,6,6-tetramethylpiperidin-1-yl)oxy)ethyl)phenyl)amino)propan-2-yl)amino)butan-2-yl)amino)-1-oxo-3-phenylpropan-2-yl)amino)-4-oxobutanoic acid]",24,48,less active,15.0 10^−4 s^−1,–,31.45,30.93,–
